Reference: ChEMBL document CHEMBL1127007, “Quinazolinones 2: QSAR and in vivo characterization of AT1 selective AII antagonists” (Bioorg Med Chem Lett, 1993)

Tests used:
[1] = target: T1, Type-1 angiotensin II receptor (Oryctolagus cuniculus, UniProt P34976); experiment: Ability to displace [125I]Sar1-Ile8-AII from angiotensin II receptor, type 1 in rabbit aorta in presence of 0.2% bovine serum albumin (BSA) was determined in vitro; type: tissue-based
T1 sequence (P34976 whole entry): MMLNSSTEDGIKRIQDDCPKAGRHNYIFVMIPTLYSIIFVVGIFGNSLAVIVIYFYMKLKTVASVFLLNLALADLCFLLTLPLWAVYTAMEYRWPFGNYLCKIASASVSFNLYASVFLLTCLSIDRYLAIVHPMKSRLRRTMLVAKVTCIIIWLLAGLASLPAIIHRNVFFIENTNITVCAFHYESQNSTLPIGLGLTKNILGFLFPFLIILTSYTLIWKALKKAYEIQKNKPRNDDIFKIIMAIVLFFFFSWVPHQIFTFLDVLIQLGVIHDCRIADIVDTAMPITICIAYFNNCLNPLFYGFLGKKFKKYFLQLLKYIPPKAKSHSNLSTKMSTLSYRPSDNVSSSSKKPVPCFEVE

[2] = target: Angiotensin II receptor (Rattus norvegicus) (UniProt P29089+P25095+P35351); experiment: Duration of action as time for pressor response to fall below 30% for a single bolus by intravenous dose; type: functional, organism-based
[3] = test system: Rattus norvegicus; experiment: Compound was evaluated in vivo for inhibition of the AII pressor response in normotensive rat at dose 1 mg/kg, iv after 0.1 hour; type: functional
[4] = target: T2, Type-2 angiotensin II receptor (Homo sapiens) (UniProt P50052); experiment: In vitro antagonist activity against the Angiotensin II (type 2) receptor.; type: functional
T2 sequence (whole entry): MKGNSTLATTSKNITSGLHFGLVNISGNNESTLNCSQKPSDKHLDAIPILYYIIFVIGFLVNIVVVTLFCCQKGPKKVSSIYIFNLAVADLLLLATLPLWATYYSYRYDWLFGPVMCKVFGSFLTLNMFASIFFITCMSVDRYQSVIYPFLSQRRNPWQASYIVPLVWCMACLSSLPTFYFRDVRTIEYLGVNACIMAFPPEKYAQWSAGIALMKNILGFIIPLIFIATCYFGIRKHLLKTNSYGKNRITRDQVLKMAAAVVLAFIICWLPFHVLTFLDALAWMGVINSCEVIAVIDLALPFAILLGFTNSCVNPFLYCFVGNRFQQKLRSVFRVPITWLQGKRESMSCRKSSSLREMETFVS

[5] = test system: Rattus norvegicus; experiment: Compound was evaluated in vivo for inhibition of the AII pressor response in normotensive rat at dose 0.3 mg/kg, iv; type: functional
[6] = test system: Rattus norvegicus; experiment: Compound was evaluated in vivo for inhibition of the AII pressor response in normotensive rat at dose 1 mg/kg, iv after 0.2 hour; type: functional
[7] = target: T1, Type-1 angiotensin II receptor; experiment: Displacement of [125I]Sar1-Ile8-AII (without BSA) from type 1 Angiotensin II receptor of rabbit aorta; type: tissue-based
[8] = test system: Rattus norvegicus; experiment: Compound was evaluated in vivo for inhibition of the AII pressor response in normotensive rat at dose 1 mg/kg, iv after 1.8 hour; type: functional
[9] = test system: Rattus norvegicus; experiment: Compound was evaluated in vivo for inhibition of the AII pressor response in normotensive rat at dose 1 mg/kg, iv after 0.3 hour; type: functional
[10] = test system: Rattus norvegicus; experiment: Compound was evaluated in vivo for inhibition of the AII pressor response in normotensive rat at dose 10 mg/kg, iv after 2.2 hour; type: functional
[11] = test system: Rattus norvegicus; experiment: Compound was evaluated in vivo for inhibition of the AII pressor response in normotensive rat at dose 3 mg/kg, iv after 0.9 hour; type: functional
[12] = test system: Rattus norvegicus; experiment: Compound was evaluated in vivo for inhibition of the AII pressor response in normotensive rat at dose 3 mg/kg, p.o. after 1.1 hour; type: functional; conditions: route oral
[13] = test system: Rattus norvegicus; experiment: The duration of action is expressed as the time for the % inhibition of pressor response to fall below 30% for a single bolus of the drug administered perorally.; type: functional

Row | IC50 [1] [nM] | Duration [2] [h] | Activity [4] [nM] | IC50 [7] [nM] | Compound | further results
1 | 92 |  |  |  | Cc1ccc2nc(-c3ccc(-c4ccccc4C(=O)O)cc3)n(Cc3ccc(-c4ccccc4-c4nn[nH]n4)cc3)c(=O)c2c1 | 
2 |  | 0 | > 1000 |  | CCCCc1nc2ccc(N(C)C(=O)OCc3ccccc3)cc2c(=O)n1Cc1ccc(-c2ccccc2-c2nn[nH]n2)cc1 | inhibition in vivo at 0.3 mg/kg [5]: 28%
3 |  | 0.2 | > 1000 |  | CCCCc1nc2cc(OC)c(OC)cc2c(=O)n1Cc1ccc(-c2ccccc2-c2nn[nH]n2)cc1 | inhibition in vivo at 1 mg/kg [6]: 30%
4 |  |  |  | 8.9 | CCCCC(=O)Nc1ccc2nc(CCCC)n(Cc3ccc(-c4ccccc4-c4nnn[nH]4)cc3)c(=O)c2c1 | 
5 | 8 |  |  | 1.1 | CCCCc1nc2ccc(NCc3ccccc3)cc2c(=O)n1Cc1ccc(-c2ccccc2-c2nn[nH]n2)cc1 | 
6 | 20 |  |  |  | O=C(O)c1ccccc1-c1ccc(-c2nc3ccccc3c(=O)n2Cc2ccc(-c3ccccc3-c3nn[nH]n3)cc2)cc1 | 
7 |  |  |  | 5 | CCCCc1nc2ccc(-c3ccccn3)cc2c(=O)n1Cc1ccc(-c2ccccc2-c2nnn[nH]2)cc1 | 
8 |  |  |  | 1.1 | CCCCc1nc2ccc(C)cc2c(=O)n1Cc1ccc(-c2ccccc2-c2nnn[nH]2)cc1 | 

Further lines, the compound ahead of its results:

Row | Compound | IC50 [1] [nM] | Duration [2] [h] | Activity [4] [nM] | IC50 [7] [nM] | further results
9 | CCCCc1nc2ccc(SC)cc2c(=O)n1Cc1ccc(-c2ccccc2-c2nn[nH]n2)cc1 | 7 | 0.1 | > 1000 |  | inhibition in vivo at 1 mg/kg [3]: 44%
10 | O=C(O)c1ccccc1-c1ccc(-c2nc3ccc([N+](=O)[O-])cc3c(=O)n2Cc2ccc(-c3ccccc3-c3nnn[nH]3)cc2)cc1 | 940 |  |  |  | 
11 | CCCCc1nc2ccc([S+](C)[O-])cc2c(=O)n1Cc1ccc(-c2ccccc2-c2nn[nH]n2)cc1 (configuration not stated) | 1 | 1.8 | > 1000 | 0.9 | inhibition in vivo at 1 mg/kg [8]: 89%
12 | CCCCc1nc2ccc(CC)cc2c(=O)n1Cc1ccc(-c2ccccc2-c2nnn[nH]2)cc1 | 4 |  |  |  | 
13 | CCCCc1nc2ccc(OC(=O)NC(C)C)cc2c(=O)n1Cc1ccc(-c2ccccc2-c2nn[nH]n2)cc1 | 1 | 0 | > 1000 |  | inhibition in vivo at 0.3 mg/kg [5]: 30%
14 | CC(=O)Nc1ccc2nc(-c3ccc(-c4ccccc4C(=O)O)cc3)n(Cc3ccc(-c4ccccc4-c4nn[nH]n4)cc3)c(=O)c2c1 | 50 |  |  |  | 
15 | Nc1ccc2nc(-c3ccc(-c4ccccc4C(=O)O)cc3)n(Cc3ccc(-c4ccccc4-c4nn[nH]n4)cc3)c(=O)c2c1 | 33 |  |  |  | 
16 | CCCCc1nc2ccccc2c(=O)n1Cc1ccc(-c2ccccc2-c2nn[nH]n2)cc1 | 6 |  | > 1000 |  | inhibition in vivo at 1 mg/kg [9]: 40%; inhibition in vivo at 10 mg/kg [10]: 98%; inhibition in vivo at 3 mg/kg [11]: 70%; inhibition in vivo at 3 mg/kg [12]: 54%; Duration [13]: 1.1 h
